Reference: patent US8735391B2, “Synthesis of functionalized octahydro-isoquinolin-1-one-8-carboxamides, octahydro-isoquinolin-1-one-8-carboxylic esters and analogs, and therapeutic methods” (University of Kansas, priority 2008, dated 2014)
Like-named read-outs stand apart in the source and are kept apart here.

Experiments:
[1] = molecular target: T1, KOR (Homo sapiens, UniProt P41145); assay: Opioid secondary binding, KOR (Tables 4, 5, 8, 9)
[2] = molecular target: MOR (Homo sapiens, UniProt P35372); assay: Opioid secondary binding, MOR (Tables 4, 5, 8)
Sequence of MOR (P35372 whole entry): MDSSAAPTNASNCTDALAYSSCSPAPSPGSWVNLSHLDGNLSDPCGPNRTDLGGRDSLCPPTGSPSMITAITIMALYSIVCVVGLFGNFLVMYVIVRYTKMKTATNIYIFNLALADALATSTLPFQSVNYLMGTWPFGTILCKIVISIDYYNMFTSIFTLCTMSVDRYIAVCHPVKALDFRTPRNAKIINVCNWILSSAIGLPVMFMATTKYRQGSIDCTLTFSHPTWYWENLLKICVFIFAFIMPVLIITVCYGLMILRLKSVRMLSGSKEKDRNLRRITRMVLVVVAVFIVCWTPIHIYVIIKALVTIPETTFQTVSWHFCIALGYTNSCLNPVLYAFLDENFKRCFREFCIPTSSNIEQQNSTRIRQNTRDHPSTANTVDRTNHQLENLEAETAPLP

[3] = molecular target: T1, KOR; assay: [35S]GTPγS binding functional agonist assay on membranes of CHO cells expressing hKOR (reference agonist U69593); format: biochemical; parameters: expressed in transfected cells; host or cells: CHO cells, stably transfected; crude membrane fractions; conditions: for KOR agonist (average percent efficacy relative to cognate agonist): test compound at 10 micromolar, N=4, reference agonist = 100%, CHO-cell line expressing hKOR; for Emax values relative to U69593: [35S]GTPγS data-fit top relative to reference agonist U69593
Method: The compounds prepared herein were tested for bioactivity with opioid receptors. Agonist assays: Data represent the percent efficacy (relative to cognate agonist) of the test compound at 10 micromolar. The response to a saturating concentration of a reference antagonist or to vehicle (usually none or negligible) is set to 0%. […] The response inhibition elicited by a saturating concentration of reference antagonist is set to 100%; the response inhibition (usually none or negligible) elicited by vehicle is set to 0%. The following tables provide data related to the bioactivity for opioid receptors of the compounds described herein.
Table 6 provides data that represent the average percent efficacy (N=4; relative to cognate agonist) of the test compound at 10 micromolar concentration. The response to a saturating concentration of cognate/reference agonist is set to 100%; the response to a saturating concentration of a reference antagonist or to vehicle (usually none or negligible) is set to 0%. All functional assays are performed on stably transfected CHO-cell lines expressing hKOR, hMOR or hDOR.
(§1) Serial dilutions of the test and reference compounds are made in binding buffer at 2× assay concentration (final assay concentrations ranging from 0.1 nM to 10 μM). Crude membrane fractions (1.8 to 3.5 cm2/well) (prepared from 10-cm plates by harvesting PBS-rinsed monolayers, resuspending and lysing in chilled, hypotonic 50 mM Tris-HCl, pH 7.4, centrifuging at 20,000×g, decanting the supernatant and storing at −80 degrees centigrade; typically, one 10-cm plate provides sufficient material for 24 wells) are resuspended in 1.2 ml of assay buffer containing 20 μM GDP, wheat germ agglutinin (WGA)-coated scintillation proximity beads (2.4 mg), and [35S]GTPγS (300 pM final). The suspension is then added (50 μl/well) to 50 μl of the 2× test or reference compounds (each concentration assayed in triplicate) in flexible transparent PET 96-well plates. The reaction plate is sealed and incubated for 90 min at room temperature, then centrifuged for 5 min at 216×g, and finally loaded into a Wallac MicroBeta TriLux counter. Non-specific [35S]GTPγS binding is assessed at the maximum concentration of reference agonist in the presence of 10 μM antagonist. The background signal is measured at 10 μM reference agonist in the presence of 10 μM unlabeled GTPγS. Raw data (dpm) representing total [35S]GTPγS binding (i.e., specific+non-specific binding) are calculated as a percentage of the maximum response by the reference agonist (in this case U69593).
as §1, with “GTPγS.” for “GTPγS. Raw data (dpm) representing total [35S]GTPγS binding (i.e., specific+non-specific binding) are calculated as a percentage of the maximum response by the reference agonist (in this case U69593).”

[4] = molecular target: DOR (Homo sapiens, UniProt P41143); assay: Opioid secondary binding, DOR (Table 4); conditions: Opioid secondary binding activity for Formula 10 analogs
Sequence of DOR (P41143 whole entry): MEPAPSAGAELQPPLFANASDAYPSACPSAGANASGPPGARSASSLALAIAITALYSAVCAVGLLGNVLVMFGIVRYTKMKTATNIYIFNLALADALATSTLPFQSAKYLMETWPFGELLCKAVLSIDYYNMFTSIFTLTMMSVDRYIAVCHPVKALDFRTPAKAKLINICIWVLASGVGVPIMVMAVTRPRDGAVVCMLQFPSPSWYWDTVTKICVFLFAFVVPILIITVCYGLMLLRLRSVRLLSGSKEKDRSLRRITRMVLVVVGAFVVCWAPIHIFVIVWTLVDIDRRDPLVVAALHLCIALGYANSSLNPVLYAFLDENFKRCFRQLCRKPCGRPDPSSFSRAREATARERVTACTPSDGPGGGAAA

[5] = Opioid secondary binding activity for Formula 10 analogs, read-out: KOR, Ki
[6] = Opioid secondary binding activity for Formula 10 analogs, read-out: MOR, Ki

T1 sequence (P41145 whole entry): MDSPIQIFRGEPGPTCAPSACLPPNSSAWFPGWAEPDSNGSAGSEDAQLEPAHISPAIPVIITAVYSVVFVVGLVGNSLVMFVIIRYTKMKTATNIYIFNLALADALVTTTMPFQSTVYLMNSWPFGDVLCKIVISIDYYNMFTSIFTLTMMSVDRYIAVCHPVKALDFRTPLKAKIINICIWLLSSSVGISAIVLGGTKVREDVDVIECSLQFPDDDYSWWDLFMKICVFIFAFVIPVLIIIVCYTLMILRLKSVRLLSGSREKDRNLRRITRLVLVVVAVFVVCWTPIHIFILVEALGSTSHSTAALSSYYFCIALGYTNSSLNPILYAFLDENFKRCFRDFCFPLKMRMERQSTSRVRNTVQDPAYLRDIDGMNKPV

| Structure (SMILES) | Ki [1, 5] [nM] | Ki [2, 6] [nM] | KOR agonist (average percent efficacy relative to cognate agonist) [3] [%] | further results |
| --- | --- | --- | --- | --- |
| O=C(OCc1ccccc1)C(Cc1ccccc1)NC(=O)C1CC=CC2CCN(Cc3ccc(Cl)cc3)C(=O)C21 (mixture of isomers) [compound 11813] | 1160 | 1910 | – | – |
| O=C(NCCc1ccccc1)[C@@H]1CC=C[C@@H]2CCN(Cc3ccc(Cl)c(Cl)c3)C(=O)[C@@H]21 (racemic) [compound 5084] | 4800 | 5190 | – | – |
| O=C(Nc1ccc(F)c(F)c1)[C@@H]1CC=C[C@@H]2CCN(Cc3ccc(Cl)c(Cl)c3)C(=O)[C@@H]21 (racemic) [compound 5085] | 2960 | 4660 | – | – |
| O=C(Nc1ccc(Cl)c(C(F)(F)F)c1)[C@@H]1CC=C[C@@H]2CCN(Cc3ccccc3)C(=O)[C@@H]21 (racemic) [compound 8620] | – | 3550 | – | Ki [1]: 5.3 nM; Emax ([3]; read-out: Emax values relative to U69593): 67% |
| O=C(NCCc1ccccc1)[C@@H]1CC=C[C@@H]2CCN(Cc3ccccc3)C(=O)[C@@H]21 (racemic) [compound 8916] | 561 | 4600 | 110.6 | – |
| COc1ccc(CNC(=O)[C@@H]2CC=C[C@@H]3CCN(Cc4ccc(Cl)c(Cl)c4)C(=O)[C@@H]32)cc1 (racemic) [compound 8928] | 964 | 7400 | 17.7 | – |
| O=C(Nc1ccccc1)[C@@H]1CC=C[C@@H]2CCN(C3CCCCC3)C(=O)[C@@H]21 (racemic) [compound 8939] | 71 | – | 133.7 | Ki [4]: 8940 nM |
| CCCCN1CC[C@H]2C=CC[C@@H](C(=O)Nc3ccccc3)[C@H]2C1=O (racemic) [compound 8940] | 677 | – | 112.1 | Ki [4]: 6110 nM |
| COc1ccc(NC(=O)[C@@H]2CC=C[C@@H]3CCN(C4CCCCC4)C(=O)[C@@H]32)cc1 (racemic) [compound 8945] | 1790 | – | 54.3 | Ki [4]: 5670 nM |
| CCCCN1CC[C@H]2C=CC[C@@H](C(=O)Nc3ccc(OC)cc3)[C@H]2C1=O (racemic) [compound 8946] | 5040 | – | 23.5 | – |
| COc1ccc(NC(=O)[C@@H]2CC=C[C@@H]3CCN(Cc4ccc(Cl)c(Cl)c4)C(=O)[C@@H]32)cc1 (racemic) [compound 8947] | 2560 | 3490 | 17.3 | – |
| O=C(Nc1ccc(Cl)cc1Cl)[C@@H]1CC=C[C@@H]2CCN(C3CCCCC3)C(=O)[C@@H]21 (racemic) [compound 8949] | 506 | – | 67.9 | – |
| CCCCN1CC[C@H]2C=CC[C@@H](C(=O)Nc3ccc(Cl)cc3Cl)[C@H]2C1=O (racemic) [compound 8950] | 1140 | – | 72.9 | – |
| O=C(Nc1ccc(Cl)cc1Cl)[C@@H]1CC=C[C@@H]2CCN(Cc3ccc(Cl)c(Cl)c3)C(=O)[C@@H]21 (racemic) [compound 8951] | 2440 | – | 23.2 | – |
| COc1ccc(CN2CC[C@H]3C=CC[C@@H](C(=O)Nc4ccc(Cl)cc4Cl)[C@H]3C2=O)cc1OC (racemic) [compound 8952] | – | 5660 | −2.6 | – |
| O=C(Nc1ccc(Cl)c(C(F)(F)F)c1)[C@@H]1CC=C[C@@H]2CCN(C3CC3)C(=O)[C@@H]21 (racemic) [compound 8954] | 493 | – | 66.4 | – |
| O=C(Nc1ccc(Cl)c(C(F)(F)F)c1)[C@@H]1CC=C[C@@H]2CCN(C3CCCCC3)C(=O)[C@@H]21 (racemic) [compound 8955] | 111 | – | 93.2 | – |

| Structure (SMILES) | Ki [1, 5] [nM] | Ki [2, 6] [nM] | KOR agonist (average percent efficacy relative to cognate agonist) [3] [%] | further results |
| --- | --- | --- | --- | --- |
| COc1ccc(CN2CC[C@H]3C=CC[C@@H](C(=O)Nc4ccc(Cl)c(C(F)(F)F)c4)[C@H]3C2=O)cc1OC (racemic) [compound 8958] | – | 2540 | – | – |
| O=C(Nc1ccc(Cl)c(C(F)(F)F)c1)[C@@H]1CC=C[C@@H]2CCN(c3ccccc3)C(=O)[C@@H]21 (racemic) [compound 10825] | 100 | – | – | Emax values relative to U69593 [3]: 82% |
| O=C(Nc1ccc(Cl)c(C(F)(F)F)c1)C1CCCC2CCN(Cc3ccccc3)C(=O)C21 (racemic) [compound 11478] | 51 | 1750 | – | – |
| O=C(Nc1cc(C(F)(F)F)ccc1Cl)C1CC=CC2CCN(C3CCCCC3)C(=O)C21 (racemic) [compound 11837] | 94 | – | – | Ki [4]: 8020 nM; Emax values relative to U69593 [3]: 106% |
| O=C(Nc1cc(C(F)(F)F)ccc1Cl)C1CC=CC2CCN(CCc3ccccc3)C(=O)C21 (racemic) [compound 11849] | 1820 | 2410 | – | – |
| O=C(NCc1ccc(Cl)c(C(F)(F)F)c1)[C@@H]1CC=C[C@@H]2CCN(c3ccccc3)C(=O)[C@@H]21 (racemic) [compound 11862] | 98 | – | – | Emax values relative to U69593 [3]: 81% |
| O=C(Nc1ccc(Br)c(C(F)(F)F)c1)[C@@H]1CC=C[C@@H]2CCN(c3ccccc3)C(=O)[C@@H]21 (racemic) [compound 11863] | 12 | – | – | Emax values relative to U69593 [3]: 95% |
| O=C(Nc1ccc(Cl)cc1C(F)(F)F)[C@@H]1CC=C[C@@H]2CCN(c3ccccc3)C(=O)[C@@H]21 (racemic) [compound 11864] | 68 | – | – | Emax values relative to U69593 [3]: 119% |
| Cc1cc(NC(=O)[C@@H]2CC=C[C@@H]3CCN(c4ccccc4)C(=O)[C@@H]32)ccc1Cl (racemic) [compound 11866] | 33.5 | – | – | Emax values relative to U69593 [3]: 123% |
| O=C(NCc1ccc(Cl)c(C(F)(F)F)c1)[C@@H]1CC=C[C@@H]2CCN(Cc3ccccc3)C(=O)[C@@H]21 (racemic) [compound 11868] | 455 | 2160 | – | – |
| O=C(NCc1ccc(Cl)c(C(F)(F)F)c1)[C@@H]1CC=C[C@@H]2CCN(CCc3ccccc3)C(=O)[C@@H]21 (racemic) [compound 11874] | 319 | 1240 | – | – |
| O=C(Nc1ccc(Br)c(C(F)(F)F)c1)[C@@H]1CC=C[C@@H]2CCN(CCc3ccccc3)C(=O)[C@@H]21 (racemic) [compound 11875] | 2280 | 1180 | – | – |
| Cc1cc(NC(=O)[C@@H]2CC=C[C@@H]3CCN(CCc4ccccc4)C(=O)[C@@H]32)ccc1Cl (racemic) [compound 11878] | 4120 | 1670 | – | – |
| O=C(Nc1cccc(Cl)c1)[C@@H]1CC=C[C@@H]2CCN(CC3CCCCC3)C(=O)[C@@H]21 (racemic) [compound 11888] | 68 | – | – | Emax values relative to U69593 [3]: 70% |
| O=C(Nc1ccc(Cl)c(C(F)(F)F)c1)[C@@H]1CC=C[C@@H]2CCN(Cc3ccccc3)C(=O)[C@@H]21 [compound 11789] | – | – | – | Ki [1]: 132 nM; Ki [2]: 3480 nM |
| O=C(Nc1ccccc1)[C@H]1CC=C[C@H]2CCN(Cc3ccccc3)C(=O)[C@@H]12 [compound 11794] | 137 | 1660 | – | – |
| O=C(Nc1ccc(Cl)c(C(F)(F)F)c1)[C@@H]1CC=C[C@H]2CCN(Cc3ccccc3)C(=O)[C@H]21 [compound 11795] | – | 5420 | – | Ki [1]: 158 nM |
